Biological target: TBK1 (Homo sapiens (Human), UniProt Q9UHD2)
Assay: TBK1 low ATP kinase assay (in vitro assay 1)
Type: biochemical
Details: in vitro assay 1, read-out: TBK1 low ATP kinase assay IC50

Sequence of TBK1 (Q9UHD2 whole entry): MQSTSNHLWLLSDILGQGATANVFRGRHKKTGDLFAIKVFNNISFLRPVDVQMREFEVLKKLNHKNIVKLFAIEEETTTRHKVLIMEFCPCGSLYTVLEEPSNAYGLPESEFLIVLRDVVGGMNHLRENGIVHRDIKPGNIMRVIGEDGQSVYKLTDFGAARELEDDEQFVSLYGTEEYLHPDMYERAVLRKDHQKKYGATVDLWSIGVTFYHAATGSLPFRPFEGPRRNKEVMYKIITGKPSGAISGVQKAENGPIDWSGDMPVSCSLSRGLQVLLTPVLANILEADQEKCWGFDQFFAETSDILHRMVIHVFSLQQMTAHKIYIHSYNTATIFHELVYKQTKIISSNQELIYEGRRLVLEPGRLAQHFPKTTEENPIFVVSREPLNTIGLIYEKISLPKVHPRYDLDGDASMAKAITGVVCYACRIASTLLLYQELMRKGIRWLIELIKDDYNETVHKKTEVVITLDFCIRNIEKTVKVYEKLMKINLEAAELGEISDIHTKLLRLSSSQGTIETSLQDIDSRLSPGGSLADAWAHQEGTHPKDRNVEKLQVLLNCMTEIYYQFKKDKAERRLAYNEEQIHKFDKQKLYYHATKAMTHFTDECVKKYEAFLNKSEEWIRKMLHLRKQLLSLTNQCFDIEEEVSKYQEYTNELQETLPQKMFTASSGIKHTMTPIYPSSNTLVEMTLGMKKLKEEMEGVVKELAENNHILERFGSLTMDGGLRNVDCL

| Compound | IC50 |
| --- | --- |
| CCOc1c(-c2ccncc2OC)ccc2nc(Nc3cc(CN4CCN(C(=O)CC5CC5)CC4)ccn3)[nH]c12 [Example 51.02, 2-cyclopropyl-1-{4-[(2-{[7-ethoxy-6-(3-methoxypyridin-4-yl)-1H-benzimidazol-2-yl]amino}pyridin-4-yl)methyl]piperazin-1-yl}ethanone] | 270 nM |
| CCOc1c(-c2ccncc2OC)ccc2nc(Nc3cc(CN4CCN(C(=O)C5CC5)CC4)ccn3)[nH]c12 [Example 51.03, cyclopropyl{4-[(2-{[7-ethoxy-6-(3-methoxypyridin-4-yl)-1H-benzimidazol-2-yl]amino}pyridin-4-yl)methyl]piperazin-1-yl}methanone] | 113 nM |
| CCOc1c(-c2ccncc2OC)ccc2nc(Nc3cc(CN4CCN(C(=O)C5CCC5)CC4)ccn3)[nH]c12 [Example 51.04, cyclobutyl{4-[(2-{[7-ethoxy-6-(3-methoxypyridin-4-yl)-1H-benzimidazol-2-yl]amino}pyridin-4-yl)methyl]piperazin-1-yl}methanone] | 203 nM |
| CCn1cc(-c2ccc3nc(Nc4cc(CN5CCN(C(=O)CC(F)(F)F)CC5)ccn4)[nH]c3c2OCC(C)C)cn1 [Example 52.01, 1-{4-[(2-{[6-(1-ethyl-1H-pyrazol-4-yl)-7-(2-methylpropoxy)-1H-benzimidazol-2-yl]amino}pyridin-4-yl)methyl]piperazin-1-yl}-3,3,3-trifluoropropan-1-one] | 64.7 nM |
| CCn1cc(-c2ccc3nc(Nc4cc(CN5CCN(C(=O)C6CC6)CC5)ccn4)[nH]c3c2OCC(C)C)cn1 [Example 52.02, cyclopropyl{4-[(2-{[6-(1-ethyl-1H-pyrazol-4-yl)-7-(2-methylpropoxy)-1H-benzimidazol-2-yl]amino}pyridin-4-yl)methyl]piperazin-1-yl}methanone] | 36.9 nM |
| O=C(C1CCC1)N1CCN(Cc2ccnc(Nc3nc4ccc(-c5cnn(CC(F)(F)F)c5)cc4[nH]3)c2)CC1 [Example 58.01.01, cyclobutyl(4-{[2-({6-[1-(2,2,2-trifluoroethyl)-1H-pyrazol-4-yl]-1H-benzimidazol-2-yl}amino)pyridin-4-yl]methyl}piperazin-1-yl)methanone] | 12.8 nM |
| O=C(CC(F)(F)F)N1CCN(Cc2ccnc(Nc3nc4ccc(-c5cnn(CC(F)(F)F)c5)cc4[nH]3)c2)CC1 [Example 58.01.02, 3,3,3-trifluoro-1-(4-{[2-({6-[1-(2,2,2-trifluoroethyl)-1H-pyrazol-4-yl]-1H-benzimidazol-2-yl}amino)pyridin-4-yl]methyl}piperazin-1-yl)propan-1-one] | 9.81 nM |

Next, values leading:

| IC50 | Compound |
| --- | --- |
| 132 nM | CCOc1c(-c2cnn(CC)c2)ccc2nc(Nc3cc(CN4CCN(C(=O)CC(F)(F)F)CC4)ccn3)[nH]c12 [Example 53.01, 1-{4-[(2-{[7-ethoxy-6-(1-ethyl-1H-pyrazol-4-yl)-1H-benzimidazol-2-yl]amino}pyridin-4-yl)methyl]piperazin-1-yl}-3,3,3-trifluoropropan-1-one] |
| 121 nM | CCOc1c(-c2cnn(CC)c2)ccc2nc(Nc3cc(CN4CCN(C(=O)C5CC5)CC4)ccn3)[nH]c12 [Example 53.02, cyclopropyl{4-[(2-{[7-ethoxy-6-(1-ethyl-1H-pyrazol-4-yl)-1H-benzimidazol-2-yl]amino}pyridin-4-yl)methyl]piperazin-1-yl}methanone] |
| 243 nM | Cc1noc(-c2ccc3nc(Nc4cc(CN5CCN(C(=O)CC(F)(F)F)CC5)ccn4)[nH]c3c2C)n1 [Example 54.01, 3,3,3-trifluoro-1-{4-[(2-{[7-methyl-6-(3-methyl-1,2,4-oxadiazol-5-yl)-1H-benzimidazol-2-yl]amino}pyridin-4-yl)methyl]piperazin-1-yl}propan-1-one] |
| 229 nM | Cc1noc(-c2ccc3nc(Nc4cc(CN5CCN(C(=O)C6CC6)CC5)ccn4)[nH]c3c2C)n1 [Example 54.02, cyclopropyl{4-[(2-{[7-methyl-6-(3-methyl-1,2,4-oxadiazol-5-yl)-1H-benzimidazol-2-yl]amino}pyridin-4-yl)methyl]piperazin-1-yl}methanone] |
